How the values were obtained:
[1] = biological target: T1, Cysteinyl leukotriene receptor 1 (Homo sapiens, UniProt Q9Y271); test: Antagonist activity at human CysLT1 receptor expressed in Syrian hamster AV12-664 cells assessed as decrease in LTD4-induced intracellular calcium level pretreated followed by LTD4 addition by fluo-3 dye based FLIPR assay; format: functional, cell-based
T1 sequence (Q9Y271 whole entry): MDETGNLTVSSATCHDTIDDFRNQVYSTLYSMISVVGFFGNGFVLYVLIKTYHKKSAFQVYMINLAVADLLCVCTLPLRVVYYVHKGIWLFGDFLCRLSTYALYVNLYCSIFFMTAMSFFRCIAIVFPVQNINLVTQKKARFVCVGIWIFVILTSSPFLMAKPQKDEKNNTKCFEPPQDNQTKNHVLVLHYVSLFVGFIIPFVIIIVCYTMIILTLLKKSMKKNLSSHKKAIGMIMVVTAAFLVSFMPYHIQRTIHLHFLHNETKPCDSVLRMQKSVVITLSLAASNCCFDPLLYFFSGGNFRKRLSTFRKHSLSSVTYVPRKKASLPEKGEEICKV

[2] = biological target: T2, Metabotropic glutamate receptor 2 (Homo sapiens, UniProt Q14416); test: Positive allosteric modulation of recombinant human mGlu2 receptor expressed in hamster AV12 cells expressing EAAT1 assessed as potentiation of glutamate-induced intracellular calcium level measured after 24 to 48 hrs by FLIPR assay; format: functional, cell-based
Target sequence in this assay (Q14416 whole entry): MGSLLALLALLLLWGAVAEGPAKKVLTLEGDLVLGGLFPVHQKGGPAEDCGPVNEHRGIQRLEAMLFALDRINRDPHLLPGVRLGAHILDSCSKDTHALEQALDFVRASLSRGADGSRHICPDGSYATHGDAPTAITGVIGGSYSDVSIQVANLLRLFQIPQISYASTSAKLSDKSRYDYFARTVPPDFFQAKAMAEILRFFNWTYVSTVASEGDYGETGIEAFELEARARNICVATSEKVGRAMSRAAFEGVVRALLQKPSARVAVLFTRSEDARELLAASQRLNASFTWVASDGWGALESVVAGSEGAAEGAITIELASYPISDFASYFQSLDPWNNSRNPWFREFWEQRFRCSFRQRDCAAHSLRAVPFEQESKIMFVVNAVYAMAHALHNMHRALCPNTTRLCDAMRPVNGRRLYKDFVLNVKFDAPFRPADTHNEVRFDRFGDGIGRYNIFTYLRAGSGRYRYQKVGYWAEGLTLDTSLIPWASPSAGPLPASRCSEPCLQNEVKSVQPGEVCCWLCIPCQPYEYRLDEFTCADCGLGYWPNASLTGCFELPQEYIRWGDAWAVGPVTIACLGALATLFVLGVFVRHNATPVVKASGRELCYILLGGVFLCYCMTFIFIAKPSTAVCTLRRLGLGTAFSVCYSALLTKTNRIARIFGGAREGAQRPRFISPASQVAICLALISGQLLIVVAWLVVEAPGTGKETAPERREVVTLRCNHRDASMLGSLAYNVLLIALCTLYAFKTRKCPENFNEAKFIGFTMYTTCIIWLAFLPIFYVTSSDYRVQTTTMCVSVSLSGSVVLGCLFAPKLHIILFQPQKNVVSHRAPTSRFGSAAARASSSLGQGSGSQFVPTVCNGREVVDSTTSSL

[3] = biological target: T2, Metabotropic glutamate receptor 2; test: Positive allosteric modulation of recombinant human mGlu2 receptor expressed in hamster AV12 cells expressing EAAT1 assessed as potentiation of glutamate-induced intracellular calcium level measured after 24 to 48 hrs by FLIPR assay relative to glutamate; format: functional, cell-based
Target sequence in this assay (Q14416 19-872 limits assumed): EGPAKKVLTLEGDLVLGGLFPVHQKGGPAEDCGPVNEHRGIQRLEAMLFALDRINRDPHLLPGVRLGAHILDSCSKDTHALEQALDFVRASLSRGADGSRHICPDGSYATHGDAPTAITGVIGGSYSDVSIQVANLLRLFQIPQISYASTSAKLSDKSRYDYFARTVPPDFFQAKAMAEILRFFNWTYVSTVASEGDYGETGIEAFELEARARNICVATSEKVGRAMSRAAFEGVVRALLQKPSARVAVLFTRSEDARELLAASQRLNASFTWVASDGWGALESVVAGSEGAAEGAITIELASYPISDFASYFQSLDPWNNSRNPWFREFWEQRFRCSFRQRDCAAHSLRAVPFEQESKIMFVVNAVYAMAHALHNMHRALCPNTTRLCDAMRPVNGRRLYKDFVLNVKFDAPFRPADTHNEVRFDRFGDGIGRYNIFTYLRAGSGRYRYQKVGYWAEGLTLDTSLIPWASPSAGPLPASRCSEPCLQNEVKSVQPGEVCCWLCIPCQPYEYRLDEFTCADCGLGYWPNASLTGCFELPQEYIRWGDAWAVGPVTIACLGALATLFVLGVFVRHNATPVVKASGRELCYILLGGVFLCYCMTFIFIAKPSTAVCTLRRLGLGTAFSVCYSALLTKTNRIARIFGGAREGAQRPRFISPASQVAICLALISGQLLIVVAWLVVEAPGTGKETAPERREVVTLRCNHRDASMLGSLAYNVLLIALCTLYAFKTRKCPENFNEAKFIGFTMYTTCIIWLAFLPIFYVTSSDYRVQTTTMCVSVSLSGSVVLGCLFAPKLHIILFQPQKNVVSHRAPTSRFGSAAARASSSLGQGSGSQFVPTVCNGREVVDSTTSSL

[4] = Oral bioavailability in rat at 1 mg/kg; format: ADME, organism-based; settings: in vivo
Rattus norvegicus = test: Decrease in plasma protein extravasation in fasted Harlan Sprague-Dawley rat model of migraine compound administered via oral gavage 1 hr prior to electrical stimulation of trigeminal ganglion measured after 15 mins by FITC-BSA based fluorescence assay; format: functional
[5] = Tmax in rat at 1 mg/kg, po; format: ADME, organism-based; settings: in vivo
[6] = Cmax in rat at 1 mg/kg, po; format: ADME, organism-based; parameters: dose 1 mg/kg, route oral; settings: in vivo
[7] = Ratio of Cmax in rat to EC50 for human mGlu2 receptor expressed in hamster AV12 cells expressing EAAT1
[8] = Ratio of Cmax in rat to EC50 for human CysLT1 expressed in Syrian hamster AV12-664 cells

Compound	IC50 [1] [nM]	EC50 [2] [nM]	Emax [3] [%]	bioavailability [4] [%]	Activity (Rattus norvegicus)	ID100 (Rattus norvegicus) [mg/kg]	Tmax [5] [min]	Cmax [6] [ng/mL]	Ratio [7]	Ratio [8]
CCCc1c(OCc2ccc(Oc3ccc(-c4nn[nH]n4)cn3)cc2)ccc(C(C)=O)c1O	346	682	94							
CCCc1c(OCc2cccc(Oc3ncccc3-c3nn[nH]n3)c2)ccc(C(C)=O)c1O	390	227	85							
CC(=O)c1ccc(OCc2ccc(Oc3cccc(-c4nn[nH]n4)c3)cc2)c(C)c1O	1430	293 to 336	85	88	Dose-dependent effect	0.1	42	430	3.08	0.73
CC(=O)c1ccc(OCc2cccc(Oc3cc(-c4nn[nH]n4)ccn3)c2)c(Cl)c1O	342	87.4	101							
CCCc1c(OCc2ccc(Oc3cc(-c4nn[nH]n4)ccn3)cc2)ccc(C(C)=O)c1O	200	470	88 to 89							
CC(=O)c1ccc(OCc2cccc(Oc3ccc(-c4nn[nH]n4)cn3)c2)c(Cl)c1O	475	39.3	90							
CCCc1c(OCc2ccc(Oc3cccc(-c4nn[nH]n4)c3)nc2)ccc(C(C)=O)c1O	484	562	74							
CCCc1c(OCc2ccc(Oc3ncccc3-c3nn[nH]n3)cc2)ccc(C(C)=O)c1O	330	310	87							
CC(=O)c1ccc(OCc2cccc(Oc3cc(-c4nn[nH]n4)ccn3)c2)c(C(F)(F)F)c1O	112	6 to 6.4	81	38	Dose-dependent effect	0.01	24	24.1	8.52	0.46
CCCc1c(OCc2ccc(Oc3ccc(C(=O)O)cn3)cc2)ccc(C(C)=O)c1O	132	1430	96							
CCCc1c(OCc2cccc(Oc3ccc(-c4nn[nH]n4)cn3)c2)ccc(C(C)=O)c1O	203	319	80							
CCCc1c(OCc2cccc(Oc3cc(C(=O)O)ccn3)c2)ccc(C(C)=O)c1O	73.6	404	91							
CC(=O)c1ccc(OCc2cccc(Oc3ccc(-c4nn[nH]n4)cn3)c2)c(F)c1O	1500	1080	91							
CCCc1c(OCc2cccc(Oc3cc(-c4nn[nH]n4)ccn3)c2)ccc(C(C)=O)c1O	62.4	110	90 to 96							
CC(=O)c1ccc(OCc2cccc(Oc3ccc(-c4nn[nH]n4)cn3)c2)c(C(F)(F)F)c1O	144	17.9	85							
CNS(=O)(=O)Cc1ccc2[nH]cc(CCN(C)C)c2c1 [SUMATRIPTAN]						1				

Reference: ChEMBL document CHEMBL3872247, “Discovery of dual positive allosteric modulators (PAMs) of the metabotropic glutamate 2 receptor and CysLT1 antagonists for treating migraine headache” (Bioorg Med Chem Lett, 2017)
